# Assay results as given in patent publication US20150299188A1, “HETEROCYCLIC COMPOUND” (priority 2012, published 2015).
# System: FLAP (5-lipoxygenase activating protein)
# Assay: In vitro binding test: displacement of [3H]-7-chloro-3-(5-((3-fluoropyridin-2-yl)methoxy)-2-methylphenyl)-3,4-dihydroquinazolin-2(1H)-one from Sf9 microsome fractions
# Parameters: species or system human and mouse
# Conditions: Sf9 microsome fractions expressing FLAP; 100% = radioligand binding with 10 μM sodium 3-(3-(tert-butylsulfanyl)-1-(4-chlorobenzyl)-5-isopropyl-1H-indol-2-yl)-2,2-dimethylpropanoate, 0% = DMSO; test compound concentration not given
# In short: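 Sf9 microsomes expressing human or mouse FLAP (2 μg/mL) preincubated with compound 10 min at room temperature, then 120 nM tritiated quinazolinone ligand added for 60 min; buffer 100 mM Tris-HCl pH 7.5 with NaCl, EDTA, DTT, glycerol, Tween20. Bound ligand filtered and counted by scintillation; 10 μM indole propanoate defines 100% inhibition, DMSO 0%.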
row,SMILES,inhibitory rate (%)
1,"CC(C)(O)CNC(=O)c1ccc(OCc2c(F)cccc2F)cc1N1Cc2ccccc2NC1=O [Example 190, 4-((2,6-difluorobenzyl)oxy)-N-(2-hydroxy-2-methylpropyl)-2-(2-oxo-1,4-dihydroquinazolin-3(2H)-yl)benzamide]",55%
2,"Cc1cc2c(cc1N1Cc3cccnc3NC1=O)OC(c1ncccc1F)CC2 (stereo not shown) [Example 40, 3-(2-(3-fluoropyridin-2-yl)-6-methyl-3,4-dihydro-2H-chromen-7-yl)-3,4-dihydropyrido[2,3-d]pyrimidin-2(1H)-one]",108%
3,"Cc1ccc(OCc2ncccc2F)cc1-n1c(=O)[nH]c2cc(C(F)(F)F)ccc2c1=O [Example 357, 3-(5-((3-fluoropyridin-2-yl)methoxy)-2-methylphenyl)-7-(trifluoromethyl)quinazoline-2,4(1H,3H)-dione]",104%
4,"Cc1ccc(OCc2ncccc2F)cc1-n1c(=O)[nH]c2cnc(Cl)cc2c1=O [Example 342, 6-chloro-3-(5-((3-fluoropyridin-2-yl)methoxy)-2-methylphenyl)pyrido[3,4-d]pyrimidine-2,4(1H,3H)-dione]",101%
5,"Cc1ccc(OCc2ncccc2F)cc1N1Cc2c(C#N)cccc2NC1=O [Example 298, 3-(5-((3-fluoropyridin-2-yl)methoxy)-2-methylphenyl)-2-oxo-1,2,3,4-tetrahydroquinazoline-5-carbonitrile]",104%
6,"Cc1ccc(OCc2ncccc2F)cc1N1Cc2ccc(C(=O)N(C)C3CC3)cc2NC1=O [Example 302, N-cyclopropyl-3-(5-((3-fluoropyridin-2-yl)methoxy)-2-methylphenyl)-N-methyl-2-oxo-1,2,3,4-tetrahydroquinazoline-7-carboxamide]",104%
7,"Cc1ccc(OCc2ncccc2F)cc1N1Cc2ccc(C(=O)Nc3ccccn3)cc2NC1=O [Example 271, 3-(5-((3-fluoropyridin-2-yl)methoxy)-2-methylphenyl)-2-oxo-N-(pyridin-2-yl)-1,2,3,4-tetrahydroquinazoline-7-carboxamide]",100%
8,"Cc1ccc(OCc2ncccc2F)cc1-n1c(=O)[nH]c2c(OCC3CC3)cccc2c1=O [Example 353, 8-(cyclopropylmethoxy)-3-(5-((3-fluoropyridin-2-yl)methoxy)-2-methylphenyl)quinazoline-2,4(1H,3H)-dione]",106%
9,"COc1cncc2c1CN(c1cc3c(cc1C)CCC(c1ncccc1F)O3)C(=O)N2 (stereo not shown) [Example 23, 3-(2-(3-fluoropyridin-2-yl)-6-methyl-3,4-dihydro-2H-chromen-7-yl)-5-methoxy-3,4-dihydropyrido[3,4-d]pyrimidin-2(1H)-one]",92%
10,"O=c1[nH]c2ccc(Br)c(Cl)c2c(=O)n1-c1cc(OCc2ncccc2F)ccc1Cl [Example 368, 6-bromo-5-chloro-3-(2-chloro-5-((3-fluoropyridin-2-yl)methoxy)phenyl)quinazoline-2,4(1H,3H)-dione]",108%
11,"Cc1ccc(OCc2ncccc2F)cc1N1Cc2nn(CC(F)(F)F)cc2NC1=O [Example 263, 6-(5-((3-fluoropyridin-2-yl)methoxy)-2-methylphenyl)-2-(2,2,2-trifluoroethyl)-2,4,6,7-tetrahydro-5H-pyrazolo[4,3-d]pyrimidin-5-one]",97%
12,"O=C1Nc2c(N3CCSCC3)ncc(Cl)c2CN1c1cc2c(cc1Cl)CCC(c1ncccc1F)O2 (stereo not shown) [Example 130, 5-chloro-3-(6-chloro-2-(3-fluoropyridin-2-yl)-3,4-dihydro-2H-chromen-7-yl)-8-(thiomorpholin-4-yl)-3,4-dihydropyrido[3,4-d]pyrimidin-2(1H)-one]",101%
13,"Cc1cc2c(cc1N1Cc3c(ccnc3C(F)(F)F)NC1=O)O[C@H](c1ncccc1F)CC2 [Example 6, 3-((2S)-2-(3-fluoropyridin-2-yl)-6-methyl-3,4-dihydro-2H-chromen-7-yl)-5-(trifluoromethyl)-3,4-dihydropyrido[4,3-d]pyrimidin-2(1H)-one]",98%
14,"Cc1cc2c(cc1N1Cc3c(cncc3C3CC3)NC1=O)OC(c1ncccc1F)CC2 (stereo not shown) [Example 26, 5-cyclopropyl-3-(2-(3-fluoropyridin-2-yl)-6-methyl-3,4-dihydro-2H-chromen-7-yl)-3,4-dihydropyrido[3,4-d]pyrimidin-2(1H)-one]",101%
15,"Cc1cc2c(cc1N1Cc3c(Cl)cnc(C)c3NC1=O)OC(c1ncccc1F)CC2 (stereo not shown) [Example 129, 5-chloro-3-(2-(3-fluoropyridin-2-yl)-6-methyl-3,4-dihydro-2H-chromen-7-yl)-8-methyl-3,4-dihydropyrido[3,4-d]pyrimidin-2(1H)-one]",114%
16,"Cc1cc2c(cc1N1Cc3c(F)cnc(-c4cnn(C)c4)c3NC1=O)OC(c1ncccc1F)CC2 (stereo not shown) [Example 167, 5-fluoro-3-(2-(3-fluoropyridin-2-yl)-6-methyl-3,4-dihydro-2H-chromen-7-yl)-8-(1-methyl-1H-pyrazol-4-yl)-3,4-dihydropyrido[3,4-d]pyrimidin-2(1H)-one]",95%
17,"COc1cccc2c1CN(c1cc(OCc3ncccc3F)ccc1C)C(=O)N2 [Example 308, 3-(5-((3-fluoropyridin-2-yl)methoxy)-2-methylphenyl)-5-methoxy-3,4-dihydroquinazolin-2(1H)-one]",85%
18,"Cc1noc(C)c1-c1ncc(Cl)c2c1NC(=O)N(c1cc3c(cc1Cl)CCC(c1ncccc1F)O3)C2 (stereo not shown) [Example 126, 5-chloro-3-(6-chloro-2-(3-fluoropyridin-2-yl)-3,4-dihydro-2H-chromen-7-yl)-8-(3,5-dimethyl-1,2-oxazol-4-yl)-3,4-dihydropyrido[3,4-d]pyrimidin-2(1H)-one]",113%
19,"CNC(=O)c1cc2c(c(C3CC3)n1)CN(c1cc3c(cc1Cl)CCC(c1ncccc1F)O3)C(=O)N2 (stereo not shown) [Example 99, 3-(6-chloro-2-(3-fluoropyridin-2-yl)-3,4-dihydro-2H-chromen-7-yl)-5-cyclopropyl-N-methyl-2-oxo-1,2,3,4-tetrahydropyrido[4,3-d]pyrimidine-7-carboxamide]",94%
20,"Cc1cc2c(cc1N1Cc3c(Cl)cnc(-c4c(C)nn(C)c4C)c3NC1=O)OC(c1ncccc1F)CC2 (single isomer, unassigned; (+)) [Example 14, (+)-5-chloro-3-(2-(3-fluoropyridin-2-yl)-6-methyl-3,4-dihydro-2H-chromen-7-yl)-8-(1,3,5-trimethyl-1H-pyrazol-4-yl)-3,4-dihydropyrido[3,4-d]pyrimidin-2(1H)-one]",105%
21,"Cc1ccc(OCc2ncccc2F)cc1-n1c(=O)[nH]c2ncccc2c1=O [Example 343, 3-(5-((3-fluoropyridin-2-yl)methoxy)-2-methylphenyl)pyrido[2,3-d]pyrimidine-2,4(1H,3H)-dione]",101%
22,"COC(=O)c1ccccc1CN1C(=O)N(c2cc(OCc3ncccc3F)ccc2C)Cc2c(Cl)cccc21 [Example 295, methyl 2-((5-chloro-3-(5-((3-fluoropyridin-2-yl)methoxy)-2-methylphenyl)-2-oxo-3,4-dihydroquinazolin-1(2H)-yl)methyl)benzoate]",102%
